# Assay results as given in patent publication US4015974A, “Amido phosphorothiolates” (priority 1972, dated 1977).
# How the values were obtained:
# Assay type in all cases: in vivo
# [1] = system: common lambsquarter (Chenopodium album); experiment: Pre-emergence application, herbicidal effect on common lambsquarter (Table 1); design: key: 0: not damaged; 5: completely killed; conditions: 20 days after application, score 0-5
# Outline: (§1)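 Scores run from 0 (undamaged) to 5 (fully killed), read 20 days post-treatment. Compounds were applied as water-diluted wettable powders to soil over freshly covered seeds in ~10 cm pots, with plants kept in a greenhouse.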
# [2] = system: barnyard grass (Echinochloa crus-galli); experiment: Water application, herbicidal effect on barnyard grass (Table 2); design: key: 0: not damaged; 5: completely killed; conditions: 25 days, score 0-5
# Outline: (§2)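 Scores (0–5) taken 25 days post-treatment. Wettable-powder formulations were applied into standing water over paddy soil holding 3-leaf-stage transplanted rice, sown Echinochloa and naturally emerging monochoria, false pimpernel and toothcup.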
# [3] = system: broad-leaved weeds, e.g., monochoria, false pimpernel and toothcup; experiment: Water application, herbicidal effect on broad-leaved weeds (Table 2); design: key: 0: no effect; 1: very slightly affected; 2: slightly affected; 3: moderately affected; 4: considerably affected; 5: completely killed; conditions: 10 g/a, 25 days, score 0-5
# Source text: Wagner pots of 14 cm. in diameter, which had been packed with 1.5 kg. of paddy field soil, were brought into the state of paddy fields. To the pots were transplanted rice seedlings at the 3-leave stage. Further, seeds of barnyard grass (Echinochloa crus-galli) were sowed in the pots and required amounts of test compounds were applied to the soil under water lodged condition. 25 days after application, the degrees of herbicidal activity and phytotoxity were investigated on above-mentioned plants which had been transplanted and sowed, and on broad-leaved weeds, e.g., monochoria (Monochoria viaginalis Presl.), false pimpernel (Linderna pyxidaria) and toothcup (Rotala indica Koehue), which had been spontaneously germinated. The test compounds were used in the form of wettable powder. The herbicidal effects and the phytotoxity were evaluated as follows by the numerals ranging from 0 to 5.
# [4] = system: common purslane (Portulaca oleracea); experiment: Pre-emergence application, herbicidal effect on common purslane (Table 1); design: key: 0: not damaged; 5: completely killed; conditions: 20 days after application, score 0-5
# Outline: as §1
# [5] = system: redroot pigweed (Amaranthus retroflexus); experiment: Pre-emergence application, herbicidal effect on redroot pigweed (Table 1); design: key: 0: not damaged; 5: completely killed; conditions: 20 days after application, score 0-5
# Outline: as §1
# [6] = system: large crabgrass (Digitaria sanguinalis); experiment: Pre-emergence application, herbicidal effect on large crabgrass (Table 1); design: key: 0: not damaged; 5: completely killed; conditions: 20 days after application, score 0-5
# Outline: as §1
# [7] = system: rice; experiment: Water application, phytotoxicity on rice (Table 2); design: key: 0: no effect; 1: very slightly affected; 2: slightly affected; 3: moderately affected; 4: considerably affected; 5: completely killed; conditions: 25 days, score 0-5
# Outline: as §2
# [8] = system: broad-leaved weeds, e.g., monochoria, false pimpernel and toothcup; experiment: Water application, herbicidal effect on broad-leaved weeds (Table 2); design: key: 0: not damaged; 5: completely killed; conditions: 25 days, score 0-5
# Outline: as §2
# [9] = system: barnyard grass (Echinochloa crus-galli); experiment: Pre-emergence application, herbicidal effect on barnyard grass (Table 1); design: key: 0: not damaged; 5: completely killed; conditions: 20 days after application, score 0-5
# Outline: as §1
# [10] = system: radish; experiment: Pre-emergence application, herbicidal effect on radish (Table 1); design: key: 0: not damaged; 5: completely killed; conditions: 20 days after application, score 0-5
# Outline: as §1
# [11] = system: nematode; experiment: Effect on nematode (Table 7); design: tested at 500 ppm; conditions: 500 p.p.m., 24 hours
# Procedure: 0.5 ml. of a nematode-containing aqueous solution separated from food according to Baermann's method was placed in a test tube with ground stopper containing 0.5 ml. of an aqueous dilute solution of each emulsifiable concentrates of the present compounds. The concentration of the active ingredient in the mixture was adjusted to 500 p.p.m. After 24 hours, the death and alive were observed microscopically to calculate the mortality.
Structure (SMILES),"Herbicidal effect, common lambsquarter ([1]; 10 g./a.)","Herbicidal effect, common lambsquarter ([1]; 20 g./a.)","Herbicidal effect, common lambsquarter ([1]; 40 g./a.)","Herbicidal effects, barnyard grass ([2]; 10 g/a)","Herbicidal effects, barnyard grass ([2]; 20 g/a)","Herbicidal effects, barnyard grass ([2]; 40 g/a)","Herbicidal effect, common purslane ([4]; 10 g./a.)","Herbicidal effect, common purslane ([4]; 20 g./a.)","Herbicidal effect, common purslane ([4]; 40 g./a.)","Herbicidal effect, redroot pigweed ([5]; 10 g./a.)","Herbicidal effect, redroot pigweed ([5]; 20 g./a.)","Herbicidal effect, redroot pigweed ([5]; 40 g./a.)","Herbicidal effect, large crabgrass ([6]; 10 g./a.)","Herbicidal effect, large crabgrass ([6]; 20 g./a.)","Herbicidal effect, large crabgrass ([6]; 40 g./a.)",Phytotoxicity on rice ([7]; 10 g/a),Phytotoxicity on rice ([7]; 20 g/a),Phytotoxicity on rice ([7]; 40 g/a),"Herbicidal effects, broad-leaved weeds ([8]; 20 g/a)","Herbicidal effects, broad-leaved weeds ([8]; 40 g/a)",further results
CCCCCCCCSP(=O)(OCC)SCC(=O)N1CCCCC1C (stereo not drawn) [Compound 8],3,4,4,5,5,5,4,4,4,3,4,4,4,4,5,0,0,0,5,5,"Herbicidal effects, broad-leaved weeds [3]: 4; Herbicidal effect, barnyard grass ([9]; 10 g./a.): 4; Herbicidal effect, barnyard grass ([9]; 20 g./a.): 4; Herbicidal effect, barnyard grass ([9]; 40 g./a.): 5; Herbicidal effect, radish ([10]; 10 g./a.): 0; Herbicidal effect, radish ([10]; 20 g./a.): 0; Herbicidal effect, radish ([10]; 40 g./a.): 0"
CCCSP(=O)(OCC)SCC(=O)N1CCC(C)CC1 (stereo not drawn) [Compound 12],5,5,5,5,5,5,5,5,5,4,5,5,5,5,5,0,0,0,5,5,"Herbicidal effects, broad-leaved weeds ([8]; 10 g/a): 5; Herbicidal effect, barnyard grass ([9]; 10 g./a.): 5; Herbicidal effect, barnyard grass ([9]; 20 g./a.): 5; Herbicidal effect, barnyard grass ([9]; 40 g./a.): 5; Herbicidal effect, radish ([10]; 10 g./a.): 0; Herbicidal effect, radish ([10]; 20 g./a.): 0; Herbicidal effect, radish ([10]; 40 g./a.): 0; Mortality [11]: 100%"
CCOP(=O)(SCC(=O)N1CCCC(C)C1)SCC(C)C (stereo not drawn) [Compound 28],–,–,–,–,–,–,–,–,–,–,–,–,–,–,–,–,–,–,–,–,Mortality [11]: 100%
C#CCSP(=O)(OCC)SCC(=O)N1CCCCC1C (stereo not drawn) [Compound 33],–,–,–,–,–,–,–,–,–,–,–,–,–,–,–,–,–,–,–,–,Mortality [11]: 100%
CCOP(=O)(SCC(=O)N1CCCCC1C)SCc1ccc(C)cc1 (stereo not drawn) [Compound 52],3,4,5,5,5,5,3,4,5,4,4,5,5,5,5,0,0,0,5,5,"Herbicidal effects, broad-leaved weeds ([8]; 10 g/a): 5; Herbicidal effect, barnyard grass ([9]; 10 g./a.): 5; Herbicidal effect, barnyard grass ([9]; 20 g./a.): 5; Herbicidal effect, barnyard grass ([9]; 40 g./a.): 5; Herbicidal effect, radish ([10]; 10 g./a.): 0; Herbicidal effect, radish ([10]; 20 g./a.): 0; Herbicidal effect, radish ([10]; 40 g./a.): 0; Mortality [11]: 85.7%"
CCOP(=O)(SCC(=O)N1CCCCC1CC)SCc1ccc(Br)cc1 (stereo not drawn) [Compound 57],–,–,–,–,–,–,–,–,–,–,–,–,–,–,–,–,–,–,–,–,Mortality [11]: 91.0%
CCCCCSP(=O)(OCCCC)SCC(=O)N1CCCCC1CC (stereo not drawn) [Compound 98],5,5,5,5,5,5,4,5,5,4,5,5,5,5,5,0,0,0,5,5,"Herbicidal effects, broad-leaved weeds ([8]; 10 g/a): 5; Herbicidal effect, barnyard grass ([9]; 10 g./a.): 5; Herbicidal effect, barnyard grass ([9]; 20 g./a.): 5; Herbicidal effect, barnyard grass ([9]; 40 g./a.): 5; Herbicidal effect, radish ([10]; 10 g./a.): 0; Herbicidal effect, radish ([10]; 20 g./a.): 0; Herbicidal effect, radish ([10]; 40 g./a.): 0"
CCCCOP(=O)(SCCC(C)C)SCC(=O)N1CCCCC1CC (stereo not drawn) [Compound 99],5,5,5,5,5,5,5,5,5,4,5,5,5,5,5,0,0,0,5,5,"Herbicidal effects, broad-leaved weeds ([8]; 10 g/a): 5; Herbicidal effect, barnyard grass ([9]; 10 g./a.): 4; Herbicidal effect, barnyard grass ([9]; 20 g./a.): 5; Herbicidal effect, barnyard grass ([9]; 40 g./a.): 5; Herbicidal effect, radish ([10]; 10 g./a.): 0; Herbicidal effect, radish ([10]; 20 g./a.): 0; Herbicidal effect, radish ([10]; 40 g./a.): 0"
CCOP(=O)(SCC)SCC(=O)N1CCC(C)CC1 (stereo not drawn) [Compound 100],3,4,5,5,5,5,3,4,5,4,4,5,5,5,5,0,0,0,5,5,"Herbicidal effects, broad-leaved weeds ([8]; 10 g/a): 5; Herbicidal effect, barnyard grass ([9]; 10 g./a.): 4; Herbicidal effect, barnyard grass ([9]; 20 g./a.): 5; Herbicidal effect, barnyard grass ([9]; 40 g./a.): 5; Herbicidal effect, radish ([10]; 10 g./a.): 0; Herbicidal effect, radish ([10]; 20 g./a.): 0; Herbicidal effect, radish ([10]; 40 g./a.): 1"
"ClC=CCCl [Dichloropropene, reference compound]",–,–,–,–,–,–,–,–,–,–,–,–,–,–,–,–,–,–,–,–,Mortality [11]: 79.3%
